Key:
Assay in all cases: Histone peptide microarray
Type in all cases: binding, human
Conditions in all cases: total n = 4
[1] = system: KDM5B (1)
Method in brief: (§1)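 Each reader, produced as a GST fusion and purified, was tested at 0.5 μM on synthetic histone peptides (293 in total) carrying single or combinatorial marks. Intensities averaged over four replicates.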

[2] = system: PHF21A
Method in brief: as §1

[3] = system: BAZ2B
Method in brief: as §1

[4] = system: MORC3 (CW)
Method in brief: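 GST-tagged PHD readers, 0.5 μM, probed on a microarray of 293 synthetic histone peptides carrying single or combinatorial PTMs (optimized Petell protocol). Signals are averaged over 4 replicates and expressed as relative binding.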

[5] = system: ING2
Method in brief: as §1

[6] = system: ING3
Method in brief: as §1

[7] = system: KDM4C (TTP)
Method in brief: as §1

[8] = system: KDM5A (1)
Method in brief: as §1

[9] = system: ING4
Method in brief: as §1

[10] = system: PHF2
Method in brief: as §1

[11] = system: CHD5 (PPCC)
Method in brief: as §1

[12] = system: MLL5
Method in brief: as §1

[13] = system: KDM7A
Method in brief: as §1

[14] = system: PHF13
Method in brief: as §1

[15] = system: ING5
Method in brief: as §1

[16] = system: KDM5B (3)
Method in brief: as §1

[17] = system: PHF8
Method in brief: as §1

[18] = system: TRIM66 (PB)
Method in brief: as §1

[19] = system: TAF3
Method in brief: as §1

[20] = system: DIDO1
Method in brief: as §1

[21] = system: KDM5A (3)
Method in brief: as §1

[22] = system: SP140L
Method in brief: as §1

[23] = system: CHD5 (PCC)
Method in brief: as §1

[24] = system: PHF23
Method in brief: as §1

[25] = system: AIRE (PP)
Method in brief: as §1

[26] = system: BPTF (PB)
Method in brief: as §1

[27] = system: RAG2
Method in brief: as §1

[28] = system: DPF2 (PPC2W2)
Method in brief: as §1

[29] = system: ING1
Method in brief: as §1

[30] = system: PHRF1 (RP)
Method in brief: as §1

[31] = system: CHD4 (PPCC)
Method in brief: as §1

[32] = sheet "Array Heatmap", GST-tagged reader, histone peptide array

Substance: H3K4me3 + T6p: H3 1-20
- Array Heatmap signal, KDM5B (1) [1, 32]: 0.6162
- Array Heatmap signal, PHF21A [2, 32]: 0.4225
- Array Heatmap signal, BAZ2B [3, 32]: 0.4415
- Array Heatmap signal, MORC3 (CW) [4, 32]: 0.3571
- Array Heatmap signal, ING2 [5, 32]: 0.6187
- Array Heatmap signal, ING3 [6, 32]: 0.4695
- Array Heatmap signal, KDM4C (TTP) [7, 32]: 0.4688
- Array Heatmap signal, KDM5A (1) [8, 32]: 0.452
- Array Heatmap signal, ING4 [9, 32]: 0.4567
- Array Heatmap signal, PHF2 [10, 32]: 0.6668
- Array Heatmap signal, CHD5 (PPCC) [11, 32]: 0.54
- Array Heatmap signal, MLL5 [12, 32]: 0.5684
- Array Heatmap signal, KDM7A [13, 32]: 0.3405
- Array Heatmap signal, PHF13 [14, 32]: 0.5795
- Array Heatmap signal, ING5 [15, 32]: 0.3481
- Array Heatmap signal, KDM5B (3) [16, 32]: 0.4934
- Array Heatmap signal, PHF8 [17, 32]: 0.3678
- Array Heatmap signal, TRIM66 (PB) [18, 32]: 0.549
- Array Heatmap signal, TAF3 [19, 32]: 0.309
- Array Heatmap signal, DIDO1 [20, 32]: 0.7585
- Array Heatmap signal, KDM5A (3) [21, 32]: 0.4911
- Array Heatmap signal, SP140L [22, 32]: 0.3667
- Array Heatmap signal, CHD5 (PCC) [23, 32]: 0.7037
- Array Heatmap signal, PHF23 [24, 32]: 0.5195
- Array Heatmap signal, AIRE (PP) [25, 32]: 0.4133
- Array Heatmap signal, BPTF (PB) [26, 32]: 0.3519
- Array Heatmap signal, RAG2 [27, 32]: 0.2443
- Array Heatmap signal, DPF2 (PPC2W2) [28, 32]: 0.6833
- Array Heatmap signal, ING1 [29, 32]: 0.5971
- Array Heatmap signal, PHRF1 (RP) [30, 32]: 0.5056
- Array Heatmap signal, CHD4 (PPCC) [31, 32]: 0.5535

Substance: H3K4me3R8me2a: H3 1-20
- Array Heatmap value (peptide array signal) ([1]; KDM5B (1), sheet "Array Heatmap", each array performed twice): 0.5478
- Array Heatmap value (peptide array signal) ([2]; PHF21A, sheet "Array Heatmap", each array performed twice): 0.4017
- Array Heatmap value (peptide array signal) ([3]; BAZ2B, sheet "Array Heatmap", each array performed twice): 0.3334
- Array Heatmap value (peptide array signal) ([4]; MORC3 (CW), sheet "Array Heatmap", each array performed twice): 0.4123
- Array Heatmap value (peptide array signal) ([5]; ING2, sheet "Array Heatmap", each array performed twice): 0.6387
- Array Heatmap value (peptide array signal) ([6]; ING3, sheet "Array Heatmap", each array performed twice): 0.4064
- Array Heatmap value (peptide array signal) ([7]; KDM4C (TTP), sheet "Array Heatmap", each array performed twice): 0.39
- Array Heatmap value (peptide array signal) ([8]; KDM5A (1), sheet "Array Heatmap", each array performed twice): 0.3616
- Array Heatmap value (peptide array signal) ([9]; ING4, sheet "Array Heatmap", each array performed twice): 0.3653
- Array Heatmap value (peptide array signal) ([10]; PHF2, sheet "Array Heatmap", each array performed twice): 0.5013
- Array Heatmap value (peptide array signal) ([11]; CHD5 (PPCC), sheet "Array Heatmap", each array performed twice): 0.4208
- Array Heatmap value (peptide array signal) ([12]; MLL5, sheet "Array Heatmap", each array performed twice): 0.5116
- Array Heatmap value (peptide array signal) ([13]; KDM7A, sheet "Array Heatmap", each array performed twice): 0.3319
- Array Heatmap value (peptide array signal) ([14]; PHF13, sheet "Array Heatmap", each array performed twice): 0.5067
- Array Heatmap value (peptide array signal) ([15]; ING5, sheet "Array Heatmap", each array performed twice): 0.2674
- Array Heatmap value (peptide array signal) ([16]; KDM5B (3), sheet "Array Heatmap", each array performed twice): 0.4037
- Array Heatmap value (peptide array signal) ([17]; PHF8, sheet "Array Heatmap", each array performed twice): 0.377
- Array Heatmap value (peptide array signal) ([18]; TRIM66 (PB), sheet "Array Heatmap", each array performed twice): 0.5377
- Array Heatmap value (peptide array signal) ([19]; TAF3, sheet "Array Heatmap", each array performed twice): 0.2483
- Array Heatmap value (peptide array signal) ([20]; DIDO1, sheet "Array Heatmap", each array performed twice): 0.6362
- Array Heatmap value (peptide array signal) ([21]; KDM5A (3), sheet "Array Heatmap", each array performed twice): 0.5067
- Array Heatmap value (peptide array signal) ([22]; SP140L, sheet "Array Heatmap", each array performed twice): 0.3243
- Array Heatmap value (peptide array signal) ([23]; CHD5 (PCC), sheet "Array Heatmap", each array performed twice): 0.6343
- Array Heatmap value (peptide array signal) ([24]; PHF23, sheet "Array Heatmap", each array performed twice): 0.5109
- Array Heatmap value (peptide array signal) ([25]; AIRE (PP), sheet "Array Heatmap", each array performed twice): 0.3453
- Array Heatmap value (peptide array signal) ([26]; BPTF (PB), sheet "Array Heatmap", each array performed twice): 0.2864
- Array Heatmap value (peptide array signal) ([27]; RAG2, sheet "Array Heatmap", each array performed twice): 0.2561
- Array Heatmap value (peptide array signal) ([28]; DPF2 (PPC2W2), sheet "Array Heatmap", each array performed twice): 0.6137
- Array Heatmap value (peptide array signal) ([29]; ING1, sheet "Array Heatmap", each array performed twice): 0.5333
- Array Heatmap value (peptide array signal) ([30]; PHRF1 (RP), sheet "Array Heatmap", each array performed twice): 0.4161
- Array Heatmap value (peptide array signal) ([31]; CHD4 (PPCC), sheet "Array Heatmap", each array performed twice): 0.4923

Substance: H3K9ac + K14ac + K18ac: H3 1-20
- Array Heatmap signal (histone peptide microarray) ([1]; GST-tagged KDM5B (1), sheet Array Heatmap, each array performed twice): 0.5879
- Array Heatmap signal (histone peptide microarray) ([2]; GST-tagged PHF21A, sheet Array Heatmap, each array performed twice): 0.4657
- Array Heatmap signal (histone peptide microarray) ([3]; GST-tagged BAZ2B, sheet Array Heatmap, each array performed twice): 0.6427
- Array Heatmap signal (histone peptide microarray) ([4]; GST-tagged MORC3 (CW = CW-type Zn-finger), sheet Array Heatmap, each array performed twice): 0.5442
- Array Heatmap signal (histone peptide microarray) ([5]; GST-tagged ING2, sheet Array Heatmap, each array performed twice): 0.62
- Array Heatmap signal (histone peptide microarray) ([6]; GST-tagged ING3, sheet Array Heatmap, each array performed twice): 0.4687
- Array Heatmap signal (histone peptide microarray) ([7]; GST-tagged KDM4C (TTP = Tandem Tudor domain + PHD), sheet Array Heatmap, each array performed twice): 0.4368
- Array Heatmap signal (histone peptide microarray) ([8]; GST-tagged KDM5A (1), sheet Array Heatmap, each array performed twice): 0.4668
- Array Heatmap signal (histone peptide microarray) ([9]; GST-tagged ING4, sheet Array Heatmap, each array performed twice): 0.4438
- Array Heatmap signal (histone peptide microarray) ([10]; GST-tagged PHF2, sheet Array Heatmap, each array performed twice): 0.5699
- Array Heatmap signal (histone peptide microarray) ([11]; GST-tagged CHD5 (PPCC = Dual PHD + Dual Chromodomain), sheet Array Heatmap, each array performed twice): 0.5238
- Array Heatmap signal (histone peptide microarray) ([12]; GST-tagged MLL5, sheet Array Heatmap, each array performed twice): 0.5367
- Array Heatmap signal (histone peptide microarray) ([13]; GST-tagged KDM7A, sheet Array Heatmap, each array performed twice): 0.3112
- Array Heatmap signal (histone peptide microarray) ([14]; GST-tagged PHF13, sheet Array Heatmap, each array performed twice): 0.5825
- Array Heatmap signal (histone peptide microarray) ([15]; GST-tagged ING5, sheet Array Heatmap, each array performed twice): 0.3256
- Array Heatmap signal (histone peptide microarray) ([16]; GST-tagged KDM5B (3), sheet Array Heatmap, each array performed twice): 0.4869
- Array Heatmap signal (histone peptide microarray) ([17]; GST-tagged PHF8, sheet Array Heatmap, each array performed twice): 0.3679
- Array Heatmap signal (histone peptide microarray) ([18]; GST-tagged TRIM66 (PB = PHD + Bromodomain), sheet Array Heatmap, each array performed twice): 0.7029
- Array Heatmap signal (histone peptide microarray) ([19]; GST-tagged TAF3, sheet Array Heatmap, each array performed twice): 0.2816
- Array Heatmap signal (histone peptide microarray) ([20]; GST-tagged DIDO1, sheet Array Heatmap, each array performed twice): 0.777
- Array Heatmap signal (histone peptide microarray) ([21]; GST-tagged KDM5A (3), sheet Array Heatmap, each array performed twice): 0.5902
- Array Heatmap signal (histone peptide microarray) ([22]; GST-tagged SP140L, sheet Array Heatmap, each array performed twice): 0.346
- Array Heatmap signal (histone peptide microarray) ([23]; GST-tagged CHD5 (PCC = PHD + Dual Chromodomain), sheet Array Heatmap, each array performed twice): 0.8362
- Array Heatmap signal (histone peptide microarray) ([24]; GST-tagged PHF23, sheet Array Heatmap, each array performed twice): 0.5614
- Array Heatmap signal (histone peptide microarray) ([25]; GST-tagged AIRE (PP), sheet Array Heatmap, each array performed twice): 0.4138
- Array Heatmap signal (histone peptide microarray) ([26]; GST-tagged BPTF (PB = PHD + Bromodomain), sheet Array Heatmap, each array performed twice): 0.3483
- Array Heatmap signal (histone peptide microarray) ([27]; GST-tagged RAG2, sheet Array Heatmap, each array performed twice): 0.2782
- Array Heatmap signal (histone peptide microarray) ([28]; GST-tagged DPF2 (PPC2W2 = Dual PHD + C2W2-type Zn-finger), sheet Array Heatmap, each array performed twice): 0.8971
- Array Heatmap signal (histone peptide microarray) ([29]; GST-tagged ING1, sheet Array Heatmap, each array performed twice): 0.5813
- Array Heatmap signal (histone peptide microarray) ([30]; GST-tagged PHRF1 (RP), sheet Array Heatmap, each array performed twice): 0.8654
- Array Heatmap signal (histone peptide microarray) ([31]; GST-tagged CHD4 (PPCC = Dual PHD + Dual Chromodomain), sheet Array Heatmap, each array performed twice): 0.6424
